The text below walks through data of patent US12662451B2, “Chemical compounds and uses thereof” (GLAXOSMITHKLINE INTELLECTUAL PROPERTY (NO.4) LIMITED, priority 2023, dated 2026).

Series [1] addresses T1, recombinant full-length WRN protein (1-1432) (Homo sapiens, UniProt Q14191).
T1 construct: recombinant full-length WRN protein (1-1432)
Put plainly: WRN unwinding activity, fluorogenic 384-well assay (Example A). The following applies: WRN unwinding activity, 4 hr; Table 2; read-out: 4 hr UNW pIC50 (converted). The class given is biochemical. The gist of the method:
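Read-out is end-point unwinding of a fluorophore/quencher duplex (ex 525, em 598 nm) after 60 min with 200 μM ATP and 12 nM DNA (2× stocks), EDTA stop. Compound first sat 4 h with 200 pM WRN (2× stock) in pH 8.0 Tris buffer; four-parameter fit gives pIC50.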

Series [2] is described as follows: Cell culture media unbound percentage and stability by rapid equilibrium dialysis (Example C). The class given is in vitro ADME. The conditions noted are these: bovine, cell assay medium (RPMI-1640 with 10% fetal bovine serum), pH 7.4, rapid equilibrium dialysis, 4 hours at 37° C., read-out: Cell Culture Media Binding (% unbound). The gist of the method:
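Percent unbound in cell assay medium came from the LC-MS/MS receiver:donor peak area ratio, with stability taken as the 240 min over 0 min ratio. Set-up: 1 μM nominal compound in medium dialysed against pH 7.4 PBS (100 mM phosphate, 150 mM NaCl), 4 h, 37° C, shaken, in triplicate.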
In general terms: In equilibrium dialysis free small molecules cross a membrane that holds back macromolecules.

The subject of series [3] is SW48 human colorectal cancer cells. Put plainly: Calculated free drug potency in SW48 cell assay, corrected with media free fraction (Example C). The conditions noted are these: Homo sapiens, SW48, SW48 pCC50 corrected with measured free fraction in cell assay media. The class given is cell-based. The procedure, abridged:
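Free drug potency derives from correcting SW48 assay concentrations with the unbound fraction in medium. That fraction came from RED against pH 7.4 PBS, 1 μM nominal compound, 4 h at 37 °C, quantified by LC-MS/MS peak area ratios at T=240 versus T=0 min.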

Series [4] relates to SW48 human colorectal cancer cells (MSI-H cancer cells). Briefly: SW48 cell viability, CellTiter-Glo, 120 hours (Example B). The conditions noted are these: Homo sapiens. For orientation: In ATP-based viability assays light output follows the ATP content of the culture.
[5] abbreviates: SW48, 120 h, read-out: SW48 pCC50, SW48 cell viability, 120 hours incubation (converted), Table 2.
Where [6] appears, read: SW48, read-out: SW48 pCC50, measured potency from Example B, as repeated in Table 3 (converted).

Structures can show the parent of a compound that is named as a salt. Where two headings read alike, the source gives them in different places.

T1 sequence (Q14191 whole entry): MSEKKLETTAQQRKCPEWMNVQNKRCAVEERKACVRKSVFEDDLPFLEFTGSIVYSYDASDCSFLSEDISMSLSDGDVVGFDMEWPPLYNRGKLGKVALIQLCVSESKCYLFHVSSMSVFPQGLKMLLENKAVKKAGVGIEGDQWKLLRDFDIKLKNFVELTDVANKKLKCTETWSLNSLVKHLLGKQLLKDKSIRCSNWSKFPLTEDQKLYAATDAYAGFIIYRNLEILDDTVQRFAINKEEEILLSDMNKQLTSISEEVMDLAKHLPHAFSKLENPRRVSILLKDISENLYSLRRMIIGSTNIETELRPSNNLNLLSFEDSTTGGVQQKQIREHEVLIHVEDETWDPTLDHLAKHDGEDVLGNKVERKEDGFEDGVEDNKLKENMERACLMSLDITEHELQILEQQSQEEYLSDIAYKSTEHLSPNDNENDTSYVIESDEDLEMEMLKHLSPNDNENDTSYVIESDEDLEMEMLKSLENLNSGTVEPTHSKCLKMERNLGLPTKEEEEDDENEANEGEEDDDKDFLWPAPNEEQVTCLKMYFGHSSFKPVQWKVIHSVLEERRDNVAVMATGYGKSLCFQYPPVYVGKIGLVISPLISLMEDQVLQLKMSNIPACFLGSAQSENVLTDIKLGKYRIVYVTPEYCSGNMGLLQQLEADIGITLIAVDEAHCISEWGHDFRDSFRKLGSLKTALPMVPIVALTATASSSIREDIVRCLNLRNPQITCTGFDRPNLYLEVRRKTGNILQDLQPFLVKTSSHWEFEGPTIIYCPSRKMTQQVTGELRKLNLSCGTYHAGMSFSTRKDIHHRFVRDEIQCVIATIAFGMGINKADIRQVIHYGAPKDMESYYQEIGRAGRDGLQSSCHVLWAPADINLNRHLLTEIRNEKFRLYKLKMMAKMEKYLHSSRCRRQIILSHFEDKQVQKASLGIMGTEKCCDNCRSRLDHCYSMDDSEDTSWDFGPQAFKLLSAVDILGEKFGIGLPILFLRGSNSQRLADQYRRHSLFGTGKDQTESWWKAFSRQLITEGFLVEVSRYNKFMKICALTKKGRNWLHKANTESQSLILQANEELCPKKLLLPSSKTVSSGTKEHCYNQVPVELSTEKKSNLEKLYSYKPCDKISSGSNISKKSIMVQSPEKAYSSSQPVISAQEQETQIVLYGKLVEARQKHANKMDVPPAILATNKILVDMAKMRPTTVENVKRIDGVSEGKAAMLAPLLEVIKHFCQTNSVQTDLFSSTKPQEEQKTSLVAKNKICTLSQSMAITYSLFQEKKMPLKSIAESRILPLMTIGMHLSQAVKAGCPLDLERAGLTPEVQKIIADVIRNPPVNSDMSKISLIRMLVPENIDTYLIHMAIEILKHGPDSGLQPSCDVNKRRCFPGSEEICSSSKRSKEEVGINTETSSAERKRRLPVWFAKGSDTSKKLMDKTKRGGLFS

As for `Cc1nc2cc(S(=O)(=O)N(C)c3ccc([C@H]4CCC[C@@H](C(=O)N[C@H]5CC[C@H](C(F)(F)F)CC5)[C@@H]4C(=O)O)cc3)ccc2n1C` [Example 177, (1R,2R,6S)-2-(((1r,4R)-4-(trifluoromethyl)cyclohexyl)carbamoyl)-6-(4-((N,1,2-trimethyl-1H-benzo[d]imidazole)-5-sulfonamido)phenyl)cyclohexane-1-carboxylic acid], in series [1], the IC50 is 1.58 nM. For the same compound, the fraction unbound at 4 h, 1 µM in series [2] turned out to be 0.237. The figures for the CC50 in series [3], in series [4] (setting [5]) and in series [4] (setting [6]) were 372 nM, 1580 nM and 1580 nM, respectively.
`Cc1nc2cc(S(=O)(=O)N(C)c3ccc([C@H]4CCC[C@@H](C(=O)Nc5ccc(C(F)F)cc5F)[C@@H]4C(=O)O)cc3)ccc2n1C` [Example 179, (1R,2R,6S)-2-((4-(difluoromethyl)-2-fluorophenyl)carbamoyl)-6-(4-((N,1,2-trimethyl-1H-benzo[d]imidazole)-5-sulfonamido)phenyl)cyclohexane-1-carboxylic acid]: in series [1], the IC50 was 2.51 nM. In series [2], the fraction unbound at 4 h, 1 µM stood at 0.146. Also, the CC50 in series [3] was 145 nM; in series [4] (setting [5]), 1000 nM; in series [4] (setting [6]), 1000 nM.
In the case of `Cc1nc2cc(S(=O)(=O)N(C)c3ccc([C@H]4CCC[C@@H](C(=O)N[C@H]5CC[C@H](C(C)C)CC5)[C@@H]4C(=O)O)cc3)ccc2n1C` [Example 180, (1R,2R,6S)-2-(((1r,4R)-4-isopropylcyclohexyl)carbamoyl)-6-(4-((N,1,2-trimethyl-1H-benzo[d]imidazole)-5-sulfonamido)phenyl)cyclohexane-1-carboxylic acid], the IC50 in series [1] was 3.98 nM. The fraction unbound at 4 h, 1 µM in series [2] stood at 0.0357. The CC50 is 22.4 nM in series [3], 631 nM in series [4] (setting [5]) and 631 nM in series [4] (setting [6]).
Turning to `Cc1nc2cc(S(=O)(=O)N(C)c3ccc([C@H]4CCC[C@@H](C(=O)Nc5ccc(C(C)(C)O)cc5F)[C@@H]4C(=O)O)cc3)ccc2n1C` [Example 181, (1R,2R,6S)-2-((2-fluoro-4-(2-hydroxypropan-2-yl)phenyl)carbamoyl)-6-(4-((N,1,2-trimethyl-1H-benzo[d]imidazole)-5-sulfonamido)phenyl)cyclohexane-1-carboxylic acid], the IC50 in series [1] was 1.58 nM. The fraction unbound at 4 h, 1 µM in series [2] is 0.303. Also, the values for the CC50 in series [3], in series [4] (setting [5]) and in series [4] (setting [6]) were 603 nM, 2000 nM and 2000 nM, respectively.
Turning to `Cc1nc2cc(S(=O)(=O)N(C)c3ccc([C@H]4CCC[C@@H](C(=O)Nc5ccc6c(c5)CC(F)(F)C6)[C@@H]4C(=O)O)cc3)ccc2n1C` [Example 194, (1R,2R,6S)-2-((2,2-difluoro-2,3-dihydro-1H-inden-5-yl)carbamoyl)-6-(4-((N,1,2-trimethyl-1H-benzo[d]imidazole)-5-sulfonamido)phenyl)cyclohexane-1-carboxylic acid], in series [1], the IC50 was 7.94 nM. Further, the fraction unbound at 4 h, 1 µM in series [2] worked out at 0.114. The CC50 is 1150 nM in series [3] and 10000 nM in series [4] (setting [5]).
Turning to `CCc1ccc(NC(=O)[C@@H]2CCC[C@H](c3ccc(N(C)S(=O)(=O)c4ccc5c(c4)nc(C)n5C)cc3)[C@H]2C(=O)O)cc1` [Example 196, (1R,2R,6S)-2-((4-ethylphenyl)carbamoyl)-6-(4-((N,1,2-trimethyl-1H-benzo[d]imidazole)-5-sulfonamido)phenyl)cyclohexane-1-carboxylic acid], the IC50 in series [1] is 3.16 nM. Also, in series [2], the fraction unbound at 4 h, 1 µM was 0.0606. Also, the CC50 was 95.5 nM in series [3], 1580 nM in series [4] (setting [5]) and 1580 nM in series [4] (setting [6]).
In the case of `Cc1nc2cc(S(=O)(=O)N(C)c3ccc([C@H]4CCC[C@@H](COc5ccc(C(F)(F)F)cc5O)[C@@H]4C(=O)O)cc3)ccc2n1C` [Example 206, (1R,2R,6S)-2-((2-hydroxy-4-(trifluoromethyl)phenoxy)methyl)-6-(4-((N,1,2-trimethyl-1H-benzo[d]imidazole)-5-sulfonamido)phenyl)cyclohexane-1-carboxylic acid], the IC50 in series [1] was 15.8 nM. The fraction unbound at 4 h, 1 µM in series [2] is 0.0032. The CC50 in series [3] was 12.9 nM; in series [4] (setting [5]), 3980 nM; in series [4] (setting [6]) it was 3980 nM.
With `Cc1nc2cc(S(=O)(=O)N(C)c3ccc([C@H]4CCC[C@@H](COc5ccc(C(F)(F)F)cc5)[C@@H]4C(=O)O)cc3)ccc2n1CCN(C)C` [Example 219, (1R,2S,6R)-2-(4-((1-(2-(dimethylamino)ethyl)-N,2-dimethyl-1H-benzo[d]imidazole)-5-sulfonamido)phenyl)-6-((4-(trifluoromethyl)phenoxy)methyl)cyclohexane-1-carboxylic acid], in series [1], the IC50 was 5.01 nM. Also, in series [2], the fraction unbound at 4 h, 1 µM came to 0.0031. Further, the CC50 in series [3] was 19.5 nM; in series [4] (setting [5]) it was 6310 nM; in series [4] (setting [6]), 6310 nM.
In the case of `CN(c1ccc([C@H]2CCC[C@@H](C(=O)Nc3ccc(C(F)(F)F)cc3F)[C@@H]2C(=O)O)cc1)S(=O)(=O)c1cccc(C2CCNCC2)c1` [Example 261, (1R,2R,6S)-2-((2-fluoro-4-(trifluoromethyl)phenyl)carbamoyl)-6-(4-((N-methyl-3-(piperidin-4-yl)phenyl)sulfonamido)phenyl)cyclohexane-1-carboxylic acid], the IC50 in series [1] is 1.58 nM. Moreover, the fraction unbound at 4 h, 1 µM in series [2] was 0.311. Further, the CC50 in series [3] was 309 nM; in series [4] (setting [5]), 1000 nM; in series [4] (setting [6]), 1000 nM.
On to `CN(c1ccc([C@H]2CCC[C@@H](C(=O)Nc3ccc(C(F)(F)F)cc3F)[C@@H]2C(=O)O)cc1)S(=O)(=O)c1cccc([C@@H]2CCCNC2)c1` [Example 262, (1R,2R,6S)-2-((2-fluoro-4-(trifluoromethyl)phenyl)carbamoyl)-6-(4-((N-methyl-3-((S)-piperidin-3-yl)phenyl)sulfonamido)phenyl)cyclohexane-1-carboxylic acid], for which the IC50 in series [1] was 1.58 nM. The fraction unbound at 4 h, 1 µM in series [2] was determined as 0.241. Besides, the CC50 in series [3] was 240 nM; in series [4] (setting [5]) it was 1000 nM; in series [4] (setting [6]) it was 1000 nM.
Take `CN(c1ccc([C@H]2CCC[C@@H](C(=O)Nc3ccc(C(F)(F)F)cc3F)[C@@H]2C(=O)O)cc1)S(=O)(=O)c1cccc([C@H]2CCCNC2)c1` [Example 263]: in series [1], the IC50 was 1.58 nM. Besides, the fraction unbound at 4 h, 1 µM in series [2] was 0.278. The CC50 in series [3] was 55 nM; in series [4] (setting [5]), 200 nM; in series [4] (setting [6]) it was 200 nM.
Consider `CN1CCN(c2cc(S(=O)(=O)N(C)c3ccc([C@H]4CCC[C@@H](C(=O)Nc5ccc(C(F)(F)F)cc5F)[C@@H]4C(=O)O)cc3)cc3ccoc23)CC1` [Example 265, (1R,2R,6S)-2-((2-fluoro-4-(trifluoromethyl)phenyl)carbamoyl)-6-(4-((N-methyl-7-(4-methylpiperazin-1-yl)benzofuran)-5-sulfonamido)phenyl)cyclohexane-1-carboxylic acid], for which the IC50 in series [1] is 6.31 nM. Also, the fraction unbound at 4 h, 1 µM in series [2] stood at 0.115. The CC50 in series [3] was 91.2 nM; in series [4] (setting [5]) it was 794 nM; in series [4] (setting [6]), 794 nM.
For `CN(c1ccc([C@H]2CCC[C@@H](C(=O)Nc3ccc(C(F)(F)F)cc3F)[C@@H]2C(=O)O)cc1)S(=O)(=O)c1ccc2c(c1)nc(N)n2C` [Example 266, (1R,2S,6R)-2-(4-((2-amino-N,1-dimethyl-1H-benzo[d]imidazole)-5-sulfonamido)phenyl)-6-((2-fluoro-4-(trifluoromethyl)phenyl)carbamoyl)cyclohexane-1-carboxylic acid], the IC50 in series [1] is 1.26 nM. In addition, the fraction unbound at 4 h, 1 µM in series [2] is 0.141. Also, the CC50 was 56.2 nM in series [3], 398 nM in series [4] (setting [5]) and 398 nM in series [4] (setting [6]).
In the case of `CN(c1ccc([C@H]2CCC[C@@H](C(=O)Nc3ccc(C(F)(F)F)cc3F)[C@@H]2C(=O)O)cc1)S(=O)(=O)c1ccc2c(c1)nc(CCN)n2C` [Example 267, (1R,2S,6R)-2-(4-((2-(2-aminoethyl)-N,1-dimethyl-1H-benzo[d]imidazole)-5-sulfonamido)phenyl)-6-((2-fluoro-4-(trifluoromethyl)phenyl)carbamoyl)cyclohexane-1-carboxylic acid hydrochloride], in series [1], the IC50 is 1 nM. Also, the fraction unbound at 4 h, 1 µM in series [2] was found to be 0.226. The results for the CC50 in series [3], in series [4] (setting [5]) and in series [4] (setting [6]) were 178 nM, 794 nM and 794 nM, respectively.
With `CN(C)CCc1nc2cc(S(=O)(=O)N(C)c3ccc([C@H]4CCC[C@@H](C(=O)Nc5ccc(C(F)(F)F)cc5F)[C@@H]4C(=O)O)cc3)ccc2n1C` [Example 272, (1R,2S,6R)-2-(4-((2-(2-(dimethylamino)ethyl)-N,1-dimethyl-1H-benzo[d]imidazole)-5-sulfonamido)phenyl)-6-((2-fluoro-4-(trifluoromethyl)phenyl)carbamoyl)cyclohexane-1-carboxylic acid], in series [1], the IC50 was 1.58 nM. The fraction unbound at 4 h, 1 µM in series [2] amounted to 0.236. The CC50 is 37.2 nM in series [3], 158 nM in series [4] (setting [5]) and 158 nM in series [4] (setting [6]).
